The compounds below were run against T1, human TLR7 (Homo sapiens, UniProt Q9NYK1) (assay: Human TLR7 assay (SEAP reporter in HEK293 cells)). Conditions: SEAP induction in HEK293 cells expressing human TLR7, overnight incubation at 37° C., 0.1% DMSO.
T1 construct: expressed in transfected cells; host or cells: HEK293 cell line stably expressing the pNiFty2-SEAP reporter plasmid; TLR7 in pUNO vector, blasticidin selection
T1 sequence (Q9NYK1 27-1049): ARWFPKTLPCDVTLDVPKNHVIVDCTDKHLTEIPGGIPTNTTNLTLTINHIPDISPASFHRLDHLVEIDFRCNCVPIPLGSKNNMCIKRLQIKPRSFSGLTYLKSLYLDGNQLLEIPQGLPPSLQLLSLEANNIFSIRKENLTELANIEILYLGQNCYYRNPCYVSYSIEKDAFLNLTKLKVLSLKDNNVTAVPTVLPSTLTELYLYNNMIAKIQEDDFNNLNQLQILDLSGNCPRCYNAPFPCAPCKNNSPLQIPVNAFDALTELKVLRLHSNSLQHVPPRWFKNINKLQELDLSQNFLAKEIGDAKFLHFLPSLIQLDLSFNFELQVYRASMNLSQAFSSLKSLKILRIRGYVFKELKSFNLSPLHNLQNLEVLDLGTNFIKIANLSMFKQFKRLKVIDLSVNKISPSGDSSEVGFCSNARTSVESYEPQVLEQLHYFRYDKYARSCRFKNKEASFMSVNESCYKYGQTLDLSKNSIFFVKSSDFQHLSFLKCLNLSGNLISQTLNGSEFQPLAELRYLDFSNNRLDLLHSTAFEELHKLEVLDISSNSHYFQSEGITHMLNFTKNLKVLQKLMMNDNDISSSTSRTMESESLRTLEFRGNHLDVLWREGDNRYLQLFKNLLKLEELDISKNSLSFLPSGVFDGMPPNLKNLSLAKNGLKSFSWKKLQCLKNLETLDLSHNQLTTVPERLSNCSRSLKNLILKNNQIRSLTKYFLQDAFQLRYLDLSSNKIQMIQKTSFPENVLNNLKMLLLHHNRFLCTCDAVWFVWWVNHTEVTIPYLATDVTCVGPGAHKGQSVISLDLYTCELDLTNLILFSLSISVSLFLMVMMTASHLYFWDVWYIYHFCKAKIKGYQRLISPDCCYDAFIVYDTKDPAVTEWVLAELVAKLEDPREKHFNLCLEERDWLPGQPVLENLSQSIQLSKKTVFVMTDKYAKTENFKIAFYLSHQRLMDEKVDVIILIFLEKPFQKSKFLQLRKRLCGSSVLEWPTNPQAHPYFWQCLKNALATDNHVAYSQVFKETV
Assay type: cell-based
Text: The most common variant sequence of human TLR7 (represented by the EMBL sequence AF240467) was cloned into the mammalian cell expression vector pUNO and transfected into a HEK293 cell line already stably expressing the pNiFty2-SEAP reporter plasmid; integration of the reporter gene was maintained by selection with the antibiotic zeocin. Transfectants with stable TLR7 expression were selected using the antibiotic blasticidin. In this reporter cell-line, expression of secreted alkaline phosphatase (SEAP) is controlled by an NFkB/ELAM-1 composite promoter comprising five NFkB sites combined with the proximal ELAM-1 promoter. TLR signaling leads to the translocation of NFkB and activation of the promoter results in expression of the SEAP gene. TLR7-specific activation was assessed by determining the level of SEAP produced following overnight incubation of the cells at 37° C. with the standard compound in the presence of 0.1% (v/v) dimethylsulfoxide (DMSO). Concentration dependent induction of SEAP production by compounds was expressed as the concentration of compound which produced half of the maximal level of SEAP induction for that compound (pEC50).

Compound | EC50 [nM]
CCCCc1nc2c(N)nc3ccccc3c2n1CCCN(Cc1ccc(CC(=O)OC)cc1)C(=O)CN(C)C [Example 3, Methyl 2-(4-((N-(3-(4-amino-2-butyl-1H-imidazo[4,5-c]quinolin-1-yl)propyl)-2-(dimethylamino)acetamido)methyl)phenyl)acetate] | 79.4
CCCCc1nc2c(N)nc3ccccc3c2n1CCCN(Cc1cccc(CC(=O)OC)c1)C(=O)CN1C[C@@H](C)O[C@@H](C)C1 [Example 54, Methyl 2-(3-((N-(3-(4-amino-2-butyl-1H-imidazo[4,5-c]quinolin-1-yl)propyl)-2-((2S,6R)-2,6-dimethylmorpholino)acetamido)methyl)phenyl)acetate] | 1000
CCCCc1nc2c(N)nc3ccccc3c2n1CCCN(Cc1cccc(CC(=O)OC)c1)C(=O)CN1CCN(C)CC1 [Example 55, Methyl 2-(3-((N-(3-(4-amino-2-butyl-1H-imidazo[4,5-c]quinolin-1-yl)propyl)-2-(4-methylpiperazin-1-yl)acetamido)methyl)phenyl)acetate] | 79.4
CCCCc1nc2c(N)nc3ccccc3c2n1CCCN(Cc1cccc(CC(=O)OC)c1)C(=O)CN1CCN(CCO)CC1 [Example 56, Methyl 2-(3-((N-(3-(4-amino-2-butyl-1H-imidazo[4,5-c]quinolin-1-yl)propyl)-2-(4-(2-hydroxyethyl)piperazin-1-yl)acetamido)methyl)phenyl)acetate] | 501
CCCCc1nc2c(N)nc3ccccc3c2n1CCCN(Cc1cccc(CC(=O)OC)c1)C(=O)CN1CCN(CCOC)CC1 [Example 57, Methyl 2-(3-((N-(3-(4-amino-2-butyl-1H-imidazo[4,5-c]quinolin-1-yl)propyl)-2-(4-(2-methoxyethyl)piperazin-1-yl)acetamido)methyl)phenyl)acetate] | 50.1
CCCCc1nc2c(N)nc3ccccc3c2n1CCCN(Cc1cccc(CC(=O)OC)c1)C(=O)CN1CCN(C(C)=O)CC1 [Example 58, Methyl 2-(3-((2-(4-acetylpiperazin-1-yl)-N-(3-(4-amino-2-butyl-1H-imidazo[4,5-c]quinolin-1-yl)propyl)acetamido)methyl)phenyl)acetate] | 1260
CCCCc1nc2c(N)nc3ccccc3c2n1CCCN(Cc1cccc(CC(=O)OC)c1)C(=O)CN1CCN(S(C)(=O)=O)CC1 [Example 59, Methyl 2-(3-((N-(3-(4-amino-2-butyl-1H-imidazo[4,5-c]quinolin-1-yl)propyl)-2-(4-(methylsulfonyl)piperazin-1-yl)acetamido)methyl)phenyl)acetate] | 794
CCCCc1nc2c(N)nc3ccccc3c2n1CCCN(Cc1cccc(CC(=O)OC)c1)C(=O)CN1CCCCCC1 [Example 60, Methyl 2-(3-((N-(3-(4-amino-2-butyl-1H-imidazo[4,5-c]quinolin-1-yl)propyl)-2-(azepan-1-yl)acetamido)methyl)phenyl)acetate] | 79.4
CCCCc1nc2c(N)nc3ccccc3c2n1CCCN(Cc1cccc(CC(=O)OC)c1)C(=O)CN1CCCOCC1 [Example 61, Methyl 2-(3-((N-(3-(4-amino-2-butyl-1H-imidazo[4,5-c]quinolin-1-yl)propyl)-2-(1,4-oxazepan-4-yl)acetamido)methyl)phenyl)acetate] | 398
CCCCc1nc2c(N)nc3ccccc3c2n1CCCN(Cc1cccc(CC(=O)OC)c1)C(=O)CN1CCCN(C)CC1 [Example 62, Methyl 2-(3-((N-(3-(4-amino-2-butyl-1H-imidazo[4,5-c]quinolin-1-yl)propyl)-2-(4-methyl-1,4-diazepan-1-yl)acetamido)methyl)phenyl)acetate] | 251
CCCCc1nc2c(N)nc3ccccc3c2n1CCCN(Cc1cccc(CC(=O)OC)c1)C(=O)CN1CCCN(C(C)=O)CC1 [Example 63, Methyl 2-(3-((2-(4-acetyl-1,4-diazepan-1-yl)-N-(3-(4-amino-2-butyl-1H-imidazo[4,5-c]quinolin-1-yl)propyl)acetamido)methyl)phenyl)acetate] | 501
CCCCc1nc2c(N)nc3ccccc3c2n1CCCN(Cc1cccc(CC(=O)OC)c1)C(=O)CN1CCCN(C(=O)NCC)CC1 [Example 64, Methyl 2-(3-((N-(3-(4-amino-2-butyl-1H-imidazo[4,5-c]quinolin-1-yl)propyl)-2-(4-(ethylcarbamoyl)-1,4-diazepan-1-yl)acetamido)methyl)phenyl)acetate] | 1260
CCCCc1nc2c(N)nc3ccccc3c2n1CCCN(Cc1cccc(CC(=O)OC)c1)C(=O)CN1CCCN(S(C)(=O)=O)CC1 [Example 65, Methyl 2-(3-((N-(3-(4-amino-2-butyl-1H-imidazo[4,5-c]quinolin-1-yl)propyl)-2-(4-(methylsulfonyl)-1,4-diazepan-1-yl)acetamido)methyl)phenyl)acetate] | 631
CCCCc1nc2c(N)nc3ccccc3c2n1CCCN(Cc1ccc(CC(=O)OC)cc1)C(=O)CN1CCN(CCOC)CC1 [Example 66, Methyl 2-(4-((N-(3-(4-amino-2-butyl-1H-imidazo[4,5-c]quinolin-1-yl)propyl)-2-(4-(2-methoxyethyl)piperazin-1-yl)acetamido)methyl)phenyl)acetate] | 158

Next, values leading:

EC50 [nM] | Compound
501 | CCCCc1nc2c(N)nc3ccccc3c2n1CCCN(Cc1ccc(CC(=O)OC)cc1)C(=O)CN1CCCN(C(C)=O)CC1 [Example 67, Methyl 2-(4-((2-(4-acetyl-1,4-diazepan-1-yl)-N-(3-(4-amino-2-butyl-1H-imidazo[4,5-c]quinolin-1-yl)propyl)acetamido)methyl)phenyl)acetate]
501 | CCCCc1nc2c(N)nc3ccccc3c2n1CCCN(Cc1ccc(CC(=O)OC)cc1)C(=O)CN1CCCN(S(C)(=O)=O)CC1 [Example 68, Methyl 2-(4-((N-(3-(4-amino-2-butyl-1H-imidazo[4,5-c]quinolin-1-yl)propyl)-2-(4-(methylsulfonyl)-1,4-diazepan-1-yl)acetamido)methyl)phenyl)acetate]
398 | CCCCc1nc2c(N)nc3ccccc3c2n1CCCN(Cc1ccc(CC(=O)OC)cc1)C(=O)CN(C)C1CCN(C(C)=O)CC1 [Example 69, Methyl 2-(4-((2-((1-acetylpiperidin-4-yl)(methyl)amino)-N-(3-(4-amino-2-butyl-1H-imidazo[4,5-c]quinolin-1-yl)propyl)acetamido)methyl)phenyl)acetate]
398 | COCCc1nc2c(N)nc3ccccc3c2n1CCCN(Cc1ccc(CC(=O)OC)cc1)C(=O)CN1CCN(C)CC1 [Example 70, Methyl 2-(4-((N-(3-(4-amino-2-(2-methoxyethyl)-1H-imidazo[4,5-c]quinolin-1-yl)propyl)-2-(4-methylpiperazin-1-yl)acetamido)methyl)phenyl)acetate]
200 | COCCc1nc2c(N)nc3ccccc3c2n1CCCN(Cc1ccc(CC(=O)OC)cc1)C(=O)CN1CCN(CCOC)CC1 [Example 71, Methyl 2-(4-((N-(3-(4-amino-2-(2-methoxyethyl)-1H-imidazo[4,5-c]quinolin-1-yl)propyl)-2-(4-(2-methoxyethyl)piperazin-1-yl)acetamido)methyl)phenyl)acetate]
501 | COCCc1nc2c(N)nc3ccccc3c2n1CCCN(Cc1cccc(CC(=O)OC)c1)C(=O)CN1CCN(C)CC1 [Example 72, Methyl 2-(3-((N-(3-(4-amino-2-(2-methoxyethyl)-1H-imidazo[4,5-c]quinolin-1-yl)propyl)-2-(4-methylpiperazin-1-yl)acetamido)methyl)phenyl)acetate]
501 | COCCc1nc2c(N)nc3ccccc3c2n1CCCN(Cc1cccc(CC(=O)OC)c1)C(=O)CN1CCN(CCOC)CC1 [Example 73, Methyl 2-(3-((N-(3-(4-amino-2-(2-methoxyethyl)-1H-imidazo[4,5-c]quinolin-1-yl)propyl)-2-(4-(2-methoxyethyl)piperazin-1-yl)acetamido)methyl)phenyl)acetate]

What follows are compounds tested on Male Brown Norway rats (assay: Antigen-induced pulmonary inflammation in a rat asthma model (OVA challenge, BALF)). Conditions: 0.1 mg/kg intratracheally 24 h before and 24 h after OVA-challenge; BALF 48 h after challenge; Mean ± SE (n = 8).
Assay type: in vivo
Text: Rats were sensitised and challenged to produce allergic airway inflammation in a similar manner to that described by Underwood et al (British Journal of Pharmacology 2002; 137: 263-275, 2002). Male Brown Norway rats were sensitized subcutaneously with ovalbumin (OVA) and aluminum hydroxide on day 0, and challenged with aerosolized OVA solution on day14.

Compound | Eosinophiles (cells/BALF) | IL-5 (pg/ml BALF) | IL-13 (pg/ml BALF)
CCCCc1nc2c(N)nc3ccccc3c2n1CCCN(Cc1ccc(CC(=O)OC)cc1)C(=O)CN(C)C [Example 3, Methyl 2-(4-((N-(3-(4-amino-2-butyl-1H-imidazo[4,5-c]quinolin-1-yl)propyl)-2-(dimethylamino)acetamido)methyl)phenyl)acetate] | 67.2 ± 16.3 | 18.0 ± 8.7 | <4.9

Same assay, conditions: 1 mg/kg intratracheally 24 h before and 24 h after OVA-challenge; BALF 48 h after challenge; Mean ± SE (n = 8)

Compound | Eosinophiles (cells/BALF) | IL-5 (pg/ml BALF) | IL-13 (pg/ml BALF)
CCCCc1nc2c(N)nc3ccccc3c2n1CCCN(Cc1ccc(CC(=O)OC)cc1)C(=O)CN(C)C [Example 3, Methyl 2-(4-((N-(3-(4-amino-2-butyl-1H-imidazo[4,5-c]quinolin-1-yl)propyl)-2-(dimethylamino)acetamido)methyl)phenyl)acetate] | 36.2 ± 11.3 | 11.3 ± 7.5 | <4.9

Reference: patent US8436178B2, “Imidazoquinolines with immuno-modulating properties” (AstraZeneca AB, priority 2007, dated 2013)
